# From patent publication US9023800B2, “Peptides for the treatment of oxidative stress related disorders” (Ramot at Tel-Aviv University Ltd., priority 2009, dated 2015)
# Key:
# [1] = tested on: human neuroblastoma SH-SY5Y cells; experiment: Serum deprivation in neuroblastoma cells; assay type: cell-based; conditions: during serum deprivation, vs saline (FIG. 4A)
# Description: FIG. 4A is a bar graph illustrating that DJ-1-related peptides are protective against serum deprivation.
# (§1) Human neuroblastoma SH-SY5Y cells are obtained from the American tissue Type Culture Collection (ATCC, Rockville, USA). Cells are grown under sterile conditions as monolayer in DMEM medium supplemented with 10% heat-inactivated fetal calf serum (FCS), gentamicin ([…]), and glutamine (5 mM) in a 5% CO2 humidified atmosphere at 37° C. The medium is routinely changed every 4 days, and cells are passaged every 8 days. All experiments are performed on cells which are near confluence.
# [2] = tested on: neuronally differentiated murine neural stem cells; experiment: Oxidative insult (H2O2) in neuronally differentiated neural stem cells; assay type: cell-based; conditions: pretreated vs saline before exposure to hydrogen peroxide (FIG. 6)
# Description: Neural progenitor/stem cells are isolated from murine cortex of postnatal c57/bl mice and cultured as neurospheres. Neural and astroglial differentiation are induced.
# Susceptibility of differentiated and undifferentiated neural progenitor/stem cells to oxidative and toxic insults are determined with and without prior pretreatment with DJ-1 related peptides.
# Susceptibility of differentiated and undifferentiated neural progenitor/stem cells to oxidative and toxic insults was determined with and without prior pretreatment with DJ-1 related peptides, as illustrated in FIG. 6.
# [3] = tested on: human neuroblastoma SH-SY5Y cells; experiment: 6-hydroxydopamine toxicity in neuroblastoma cells; assay type: cell-based
# Description: as §1, with “confluence. […]” for “confluence.”
# (§2) Cells are seeded in 96-wells plates at the concentration of 5000 cells per well and allowed to attach over night. […] Alamar blue fluorescence is measured by FLUOstar spectrofluorometer at the excitation wavelength of 544 nm and the emission wavelength of 590 nm. […]
# (§3) LDH released by damaged cells into the cell culture supernatant is determined using LDH cytotoxicity detection kit (Clontech laboratories, CA, USA), according to the manufacturer's instructions. […] The percentage of dead cells is calculated by the following formula of the absorbance values: (triplicate absorbance−low control)/(maximum absorption−low control)×100.
# Hoechst 33342 enters cells with intact or damaged membranes and stains DNA in blue, thereby allowing evaluation of cell number in each well as well. […] Excitation is performed at 346 nm and emission wavelength is determined at 460 nm. […]
# [4] = tested on: HaCaT cells; experiment: Protection against UV radiation in keratinocytes; assay type: cell-based, human; conditions: HaCaT pretreated vs saline before UV radiation (FIG. 14)
# Description: The immortalized human HaCaT keratinocyte cells are used to test DJ-1 related peptides ability to protect against UV radiation induced injury. Cells are maintained in minimal essential medium containing 0.075 mM Ca^2+ (MEM-75) and 10% FCS in 5 cm Petri-dishes and subcultured every 3-4 days.
# Cultured keratinocytes were used to examine the ability of DJ-1 related peptides to protect against the damaging effects of UV radiation.
# [5] = tested on: human neuroblastoma SH-SY5Y cells; experiment: Hydrogen peroxide (H2O2) oxidative stress in neuroblastoma cells; assay type: cell-based
# Description: as §1
# (§4) Neuroblastoma cells are contacted with hydrogen peroxide (H2O2) (0-1 mM; Sigma, Chemicals Co., St. Louis, Mo., USA), 6-hydroxydopamine (0-100 μM; Sigma, Chemicals Co., St. Louis, Mo., USA), dopamine (0-500 μM; Sigma, Chemicals Co., St. Louis, Mo., USA) and 3-(4-morpholinyl)-sydnonimine (SIN-I) (0-5 mM; Sigma), (which is a peroxynitrite free radical donor), in order to produce ROS formation.
# Several methods are used in order to determine the toxic effects of oxidative insults, neurotoxins and dopamine on cellular metabolic activity, mitochondrial activity and cell viability.
# as §2, §3
# Hoechst 33342 enters cells with intact or damaged membranes and stains DNA in blue, thereby allowing evaluation of cell number in each well as well. A FLUOstar spectrofluorometer microplate reader may be used in order to evaluate the cell number in each well following exposure to different doses of various toxins. Excitation is performed at 346 nm and emission wavelength is determined at 460 nm. […]
# [6] = tested on: human neuroblastoma SH-SY5Y cells; experiment: Cell proliferation by [3H]thymidine incorporation; assay type: cell-based; conditions: exposure to the peptides (FIG. 1D)
# Description: FIGS. 1A-F are bar graphs illustrating that DJ-1-related peptide TAT 2a (SEQ ID NO: 24) is protective in vitro against oxidative and toxic insults. […] Cell proliferation was measured by quantifying [^3H]thymidine incorporation. […] The presented experiments were done on human neuroblastoma SH-SY5Y cells, and repeated at least 3 times. *p<0.05, as compared to control cells treated with vehicle and exposed to the same toxic insult.
# as §1
# [7] = tested on: human neuroblastoma SH-SY5Y cells; experiment: Dopamine toxicity in neuroblastoma cells; assay type: cell-based; conditions: SH-SY5Y (FIG. 1F)
# Description: as §1, §4
# Cells are seeded in 96-wells plates at the concentration of 5000 cells per well and allowed to attach over night. On the following day, the cells are exposed to increasing doses of dopamine (0-500 uM) for 4 hours in serum free medium. Alamar blue is a non toxic reagent which incorporates a redox indicator that changes color in response to metabolic activity. […] Alamar blue fluorescence is measured by FLUOstar spectrofluorometer at the excitation wavelength of 544 nm and the emission wavelength of 590 nm. […]
# [8] = tested on: primary mixed neuronal and glial cultures obtained from cortex of postnatal wild type C57/bl mice; experiment: Hydrogen peroxide toxicity in primary cultures; assay type: cell-based; conditions: increasing concentrations of hydrogen peroxide (FIGS. 5A-B)
# Description: (§5) Murine neuronal and astrocytes primary cultures derived from cortical tissues of post natal c57/bl mice are prepared and used in order to examine protective potential of DJ-1 related peptides.
# (§6) T protective effects of DJ-1 peptides on primary cultures, and on differentiated and undifferentiated neural stem cells obtained from C57/bl mice brains were evaluated. […] Specifically, FIGS. 5A-B illustrate protection of Tat 2A against oxidative and toxic injuries in primary mixed neuronal and astrocytes cultures from post natal mice brains. Neural progenitor/stem cells were isolated from murine cortex of postnatal c57/bl mice and cultured as neuro spheres. Neural and astroglial differentiation were induced.
# [9] = tested on: primary mixed neuronal and glial cultures obtained from cortex of postnatal wild type C57/bl mice; experiment: 6-hydroxydopamine toxicity in primary cultures; assay type: cell-based; conditions: increasing concentrations of 6-hydroxydopamine (FIGS. 5A-B)
# Description: as §5, §6
# [10] = tested on: neuroblastoma cells overexpressing A53T alpha-synuclein; experiment: Hydrogen peroxide toxicity in cells overexpressing mutant alpha-synuclein; assay type: cell-based, human; conditions: A53T alpha-synuclein cells exposed to hydrogen peroxide (FIG. 10)
# Description: The coding region of human wild-type or A53T mutant alpha-synuclein cDNA is subcloned into pcDNA3.1-plasmid (BD Biosciences, Clontech). In order to achieve overexpression of A53T mutant alpha-synuclein, SH-SY5Y neuroblastoma cells are stably transfected with the plasmid containing A53T mutant alpha-synuclein. Transfections are performed using the lipofectamine 2000 reagent (Invitrogen, Carlsbad, Calif.). Selection of transfected cells is performed by treating the cells with lethal doses of geniticin (G-418). Naive neuroblastoma cells as well as cells stably transfected with the empty vector are used as controls.
# Stable transfections are verified by measuring alpha-synuclein mRNA and protein levels using real-time PCR and Western blotting.
# A53T mutant alpha-synuclein is one of the causes for genetically inherited Parkinson's Disease. Neuroblastoma cells overexpressing mutated alpha-synuclein were used as a cellular platform for Parkinson's Disease. In order to achieve overexpression of A53T mutant alpha-synuclein, SH-SY5Y neuroblastoma cells were stably transfected with the plasmid containing A53T mutant alpha-synuclein.
# [11] = tested on: NSC-34 cells; experiment: Hydrogen peroxide toxicity in cellular model of ALS; assay type: cell-based; conditions: NSC-34 pretreated vs saline before hydrogen peroxide (FIG. 12A)
# Description: (§7) NSC-34 cells were used as a cellular model for ALS. Increasing doses of hydrogen peroxide and SIN-I, an NO donor, which are implicated in the pathogenesis of ALS were used.
# [12] = tested on: NSC-34 cells; experiment: SIN-I toxicity in cellular model of ALS; assay type: cell-based; conditions: NSC-34 pretreated vs saline before SIN-I (FIG. 12B)
# Description: as §4, §7
# [13] = tested on: 6-hydroxydopamine hemiparkinsonian mice model; experiment: In vivo 6-hydroxydopamine induced hemiparkinsonian mice model
# [14] = tested on: MPTP Parkinson's model; experiment: MPTP Parkinson's model in mice; assay type: in vivo; conditions: subcutaneous 0.4 mM; MPTP 20 mg/kg i.p. 5 consecutive days; 18 days later (FIG. 17)
# Description: In order to generate an animal model for Parkinson's disease, mice were treated with 1-methyl-4-phenyl-1,2,3,6-tetrahydropyridine (MPTP). 5 mice (C57/bl) were injected for 5 consecutive days with 20 mg/kg MPTP (i.p.) in the presence and absence of the DJ-1 related peptide (0.4 mM subcutaneous; SEQ ID NO: 25). 18 days later, the mice were sacrificed and the dopamine level, in the two hemispheres was measured by HPLC.
substance,measurement,setting,value
GAEEME (Artificial seqence) [peptide I],viability,[1],Increased viability
same,viability,[2],Increased viability
KGAEEMETVIPV (Artificial seqence) [short 2a],viability,[1],Increased viability
VDVMRRAGI (Artificial seqence) [peptide II],viability,[3]; SH-SY5Y pretreated vs saline before 6-hydroxydopamine (FIG. 3),Increased viability
same,viability,[1],Increased viability
same,viability,[2],Increased viability
same,metabolic activities,[4],Increased metabolic activities
YGRKKRRKGAEEMETVIPVD (Artificial seqence) [TAT 2a],cell viability,"[5]; exposure to H2O2, vs saline alone (FIG. 1A)",Increased cell viability
same,mitochondrial damage,"[5]; exposure to H2O2, vs saline alone (FIG. 1B)",decreased mitochondrial damage
same,metabolic activity,"[5]; exposure to H2O2, vs saline alone (FIG. 1C)",increased metabolic activity
same,cell proliferation ([3H]thymidine incorporation),[6],no increased cell proliferation
same,protection against 6-hydroxydopamine toxicity,[3]; SH-SY5Y (FIG. 1E),Protection
same,protection against dopamine toxicity,[7],Protection
same,protection against H2O2 toxicity,[8],protection
same,protection against 6-hydroxydopamine toxicity,[9],protection
same,viability,[10],Significantly increased viability
same,viability,[11],Increased viability
same,viability,[12],Increased viability
same,metabolic activities,[4],Increased metabolic activities
same,fraction of the lesioned mice that rotated in response to amphetamine injection,[13]; 50 μg IV 4 hours before 6-hydroxydopamine lesioning (FIG. 16B),smaller fraction
same,amphetamine-induced rotations,"[13]; 50 μg IV 4 hours before 6-hydroxydopamine lesioning, vs saline (FIG. 16A)",Significantly reduced
same,fraction of the lesioned mice that rotated in response to amphetamine injection,[13]; intrastriatal 2 μl of 100 μM one hour before lesioning (FIG. 15B),smaller fraction
same,amphetamine-induced rotations,"[13]; intrastriatal 2 μl of 100 μM one hour before lesioning, 2 and 4 weeks after lesioning, vs saline (FIG. 15A)",Significantly reduced
same,accelerating Rotarod examination,"[13]; intrastriatal peptide vs saline-treated controls, p=0.02",significant difference
same,6-hydroxydopamine-induced loss of tyrosine hydroxylase (TH) staining in the lesioned striatum,"[13]; intrastriatal peptide, immunohistochemical staining",reversed
YGRKKRRTVIPVDVMRRAGI (Artificial seqence) [TAT 2b],viability,[11],Increased viability
same,viability,[12],Increased viability
same,protection against MPTP Parkinson's model (dopamine level by HPLC),[14],protects
